Reference: patent publication US8288442B2, “Use of derivatives of valproic acid amides and 2-valproenic acid amides for the treatment or prevention of pain and/or headache disorders” (Yissum Research Development Company of The Hebrew …, priority 2000, dated 2012)

Tests used:
[1] = tested on: rat constriction injury model; assay: rat chronic constriction injury model of neuropathic pain (cold allodynia); type: in vivo; conditions: read-out: ED50 for reversal of cold allodynia
Procedure: The anti-pain effects of Compounds 1 and 2 are evaluated in a model for traumatic nerve injury. The specific model is the rat constriction injury model, a commonly accepted model for the evaluation of the potential of a compound to treat chronic neuropathic pain. The end point is whether a compound can reverse cold allodynia in rats following a neuropathic injury. MC may be used as the control.

[2] = tested on: Chung model; assay: Chung model of neuropathic pain (L5/L6 spinal nerve ligation, tactile allodynia, von Frey filaments); type: in vivo, rat; conditions: 300 mg/kg per os, male Sabra rats
Excerpt: The potential of Compound 1 to serve as an anti-pain agent was studied in the Chung model (Kim, S. H. and Chung, J. M.). This model is known as a reliable model, predictive for human pain. (Kim, S. H. and Chung, J. M.). In this model, spinal nerves L5 and L6 of the rat are tightly ligated and cut in order to induce neuropathic pain. Male Sabra rats weighing 250-275 g were used throughout the study. Under xylazine-ketamine anesthesia, both the L5 and L6 spinal nerves of one side of the rat were tightly ligated and cut. Pain behavior was measured following operation in all groups using withdrawal latencies of the hind paw to mechanical stimulation with von Frey filaments (tactile allodynia). The mechanical sensitivity of the foot was quantified by the occurrence of foot withdrawal in response to normally innocuous mechanical stimuli. Eight different von Frey filaments ranging from 0.6 to 26 g were used.
The efficacy (antiallodynic effect) of the compound was evaluated (300 mg/kg, per os (oral)) in eight rats at days 7 and 14 postoperation in a double-blind randomized crossover manner. The testing included estimation of time of peak effect following drug administration and measurement of the ability of the compound to decrease tactile allodynia.

[3] = tested on: plasma protein extravasation; assay: migraine model of Moskowitz (plasma protein extravasation into the dura mater); type: in vivo; conditions: control = 100
Excerpt: Evaluation of the anti-headache effects of Compounds 1 and 2 are followed in the migraine model of Moskowitz (Suzzi, M. C. and Moskowitz, M. A.). In this model, neurogenic inflammation results in the leakage of plasma proteins into the dura matter (plasma protein extravasation), which can be quantified by measuring the leakage of radioactive albumin (Suzzi, M. C. and Moskowitz, M. A.).

Row | SMILES | ED50 [1] [mg/kg] | Time of peak effect ([2]; antiallodynic effect) [min] | Effect on tactile allodynia in comparison to vehicle ([2]; days 7 and 14 postoperation, significant at 60 min (p=0.0207) and 120 min (p=0.0102)) | Percent Extravasation Compared to Control [3]
1 | CCCC(CCC)C(=O)NCC(N)=O [Compound 1, N-(2-n-propylpentanoyl)glycinamide] | < 500 | 60 | reversed tactile allodynia | <100
2 | CC/C=C(\CCC)C(=O)NCC(N)=O [Compound 2, N-(2-n-propylpent-2-enoyl)glycinamide] | < 500 |  |  | <100
